# Reference: patent US10711011B2, “Substituted oxazolidines as anti-bacterial agents” (BUGWORKS RESEARCH, INC., priority 2016, dated 2020)
# Like-named read-outs stand apart in the source and are kept apart here.
# How the values were obtained:
# [1] = Mouse oral pharmacokinetics; type: in vivo, BALB/c mice; set-up: AUC/Dose: unit not given beside the values; conditions: for Cmax/dose: in (µg/mL)/(mg/kg)
# Experimental: To assess the Oral and Intravenous pharmacokinetic profile of Example 13, pharmacokinetics (PK) of Example 13 was characterized in BALB/c mice following single intravenous (i.v.) dose of 2 mg/kg and single escalating oral doses of 2, 10, 50 and 100 mg/kg, respectively. This study was performed following all ethical practices as laid down in the guidelines for animal care (Registration number No. 1852/PO/Rc/S/16/CPCSEA). The study was approved by the Institutional Animals Ethics Committee (IAEC) of the test facility. For IVPK in BALB/c mice, the formulation used was DMSO: PEG400: Ethanol: Water (10:20:10:60 v/v) and Example 13 administered as solution. For POPK, the formulation used was 0.1% Tween80 in 0.25% CMC and Example 13 administered as suspension through an oral gavage. The plasma (mice) samples were analyzed by LC-MS/MS. PK parameters were estimated by non-compartmental analysis in Phoenix WinNonlin 6.4 The results of the per-oral and intravenous PK study of Example 13 are presented in Table 4 and 5
# [2] = system: S. aureus ATCC 29213; experiment: Minimum Inhibitory Concentration (MIC) in LB media; type: cell-based, Staphylococcus aureus; conditions: Staphylococcus aureus, ATCC29213, LB Media
# Text: The compounds of Formula I are of interest due to their potent antibacterial effects. The ability of the invention compounds disclosed herein to achieve an antibacterial effect may be evaluated with regard to their ability to inhibit the growth of bacterial species like Escherichia coli ATCC 25922, Staphylococcus aureus ATCC 29213, Klebsiella pneumoniae ATCC 13883, Acinetobacter baumannii ATCC 19606, Pseudomonas aurigenosa ATCC 27853, Enterococcus faecalis ATCC 29212 and Enterococcus faecalis ATCC 29212 using an assay based on the following Minimum Inhibitory Concentration (MIC) protocol:
# The test bacteria are grown in Luria Bertani Broth (HIMEDIA M1245), 25 grams of the powder is dissolved in 1000 ml distilled water and sterilized by autoclaving at 15 lbs pressure (121° C.) for 20 minutes. The medium sterility is checked by incubating at 37° C. for a period of 48 h.
# Bacterial cultures that are stored as glycerol stocks at −80° C. are sub cultured on LB agar plates to obtain isolated colonies. A single colony of each strain is cultured in LB broth. The cultures are incubated at 37° C., 200 rpm till they reach an optical density (OD at 600 nm) of 0.8 to 1. […] Test compounds are dissolved in dimethyl sulfoxide (DMSO) to a stock concentration of 4 mg/ml. A twofold dilution series of this DMSO stock is prepared in a 96 well V bottom microtitre plate from rows A to H. A 3 μL volume of these dilutions are transferred to a 96-well flat bottom microtitre assay plate. Controls to monitor the effects of DMSO and media sterility are included. Each well is inoculated with 150 μL of the above diluted culture. The plates are incubated at 37° C. overnight in a humidified incubator. The following morning, the plates are read using a Spectrophotometer at 600 nm wavelength. […] The antibacterial activity (MIC) determined against representative Gram positive (S. aureus, E. faecalis) and Gram negative (E. coli, P. aurigenosa, K. pneumoniae and A. baumannii) pathogen were reported Table 1.
# [3] = BALB/c, mouse, plasma, mice, single oral dose 2 mg/kg
# [4] = BALB/c, mouse, plasma, mice, single oral dose 10 mg/kg
# [5] = BALB/c, mouse, plasma, mice, single oral dose 50 mg/kg
# [6] = BALB/c, mouse, plasma, mice, single oral dose 100 mg/kg
# [7] = mice, single oral dose 10 mg/kg
# [8] = mice, single oral dose 50 mg/kg
# [9] = mice, single oral dose 100 mg/kg
smiles,measurement,setting,value
"CN1C(=O)Cc2ccc(F)c(CCNCCC3CN(c4ccc5c(n4)NC(=O)CO5)C(=O)O3)c21 (single isomer, unassigned) [Example 13, 6-(5-(2-((2-(6-fluoro-1-methyl-2-oxoindolin-7-yl)ethyl)amino)ethyl)-2-oxooxazolidin-3-yl)-2H-pyrido[3,2-b][1,4]oxazin-3(4H)-one]",Cmax,"[1]; BALB/c, mouse, plasma, po, 2 mg/kg, mice, single oral dose 2 mg/kg",6 ng/mL
same,AUC(0-inf),"[1]; BALB/c, mouse, plasma, po, 2 mg/kg, mice, single oral dose 2 mg/kg, read-out: AUC0-∞",70 ng·h/mL
same,half-life,"[1]; BALB/c, mouse, plasma, po, 2 mg/kg, mice, single oral dose 2 mg/kg, read-out: t1/2 (converted)",5.63 h
same,Cmax,"[1]; BALB/c, mouse, plasma, po, 10 mg/kg, mice, single oral dose 10 mg/kg",108 ng/mL
same,AUC(0-inf),"[1]; BALB/c, mouse, plasma, po, 10 mg/kg, mice, single oral dose 10 mg/kg, read-out: AUC0-∞",335 ng·h/mL
same,half-life,"[1]; BALB/c, mouse, plasma, po, 10 mg/kg, mice, single oral dose 10 mg/kg, read-out: t1/2 (converted)",2.13 h
same,Cmax,"[1]; BALB/c, mouse, plasma, po, 50 mg/kg, mice, single oral dose 50 mg/kg",740 ng/mL
same,AUC(0-inf),"[1]; BALB/c, mouse, plasma, po, 50 mg/kg, mice, single oral dose 50 mg/kg, read-out: AUC0-∞",1970 ng·h/mL
same,half-life,"[1]; BALB/c, mouse, plasma, po, 50 mg/kg, mice, single oral dose 50 mg/kg, read-out: t1/2 (converted)",1.6 h
same,AUC(0-inf),"[1]; BALB/c, mouse, plasma, po, 100 mg/kg, BALB/c mice, single oral doses of 2, 10, 50 and 100 mg/kg, read-out: AUC0-∞, range over oral doses",70 to 4820 ng·h/mL
same,Clast,"[1]; BALB/c, mouse, plasma, po, 100 mg/kg, BALB/c mice, single oral doses of 2, 10, 50 and 100 mg/kg, read-out: Cmax, range over oral doses",4 to 72 ng/mL
same,half-life,"[1]; BALB/c, mouse, plasma, po, 100 mg/kg, BALB/c mice, single oral doses of 2, 10, 50 and 100 mg/kg, read-out: t1/2, range over oral doses",1.4 to 5.6 h
same,Cmax,"[1]; BALB/c, mouse, plasma, po, 100 mg/kg, mice, single oral dose 100 mg/kg",2380 ng/mL
same,AUC(0-inf),"[1]; BALB/c, mouse, plasma, po, 100 mg/kg, mice, single oral dose 100 mg/kg, read-out: AUC0-∞",4820 ng·h/mL
same,half-life,"[1]; BALB/c, mouse, plasma, po, 100 mg/kg, mice, single oral dose 100 mg/kg, read-out: t1/2 (converted)",1.42 h
same,AUC(0-t),[1]; [3],70 ng·h/mL
same,Tmax,[1]; [3],1 h
same,concentration at 24 h,"[1]; BALB/c, mouse, plasma, mice, single oral dose 2 mg/kg, read-out: Clast",4 ng/mL
same,AUC(0-t),[1]; [4],311 ng·h/mL
same,Tmax,[1]; [4],0.5 h
same,concentration at 8 h,"[1]; BALB/c, mouse, plasma, mice, single oral dose 10 mg/kg, read-out: Clast",9 ng/mL
same,AUC(0-t),[1]; [5],1900 ng·h/mL
same,Tmax,[1]; [5],0.5 h
same,concentration at 8 h,"[1]; BALB/c, mouse, plasma, mice, single oral dose 50 mg/kg, read-out: Clast",28 ng/mL
same,AUC(0-t),[1]; [6],4700 ng·h/mL
same,Tmax,[1]; [6],1 h
same,concentration at 8 h,"[1]; BALB/c, mouse, plasma, mice, single oral dose 100 mg/kg, read-out: Clast",72 ng/mL
same,AUC/Dose,"[1]; mice, single oral dose 2 mg/kg",0.036
same,F,"[1]; mice, single oral dose 2 mg/kg",20.6%
same,Ke,"[1]; mice, single oral dose 2 mg/kg",0.123 h⁻¹
same,Tlast,"[1]; mice, single oral dose 2 mg/kg",24 h
same,Cmax/dose,"[1]; mice, single oral dose 2 mg/kg",0.003
same,AUC/Dose,[1]; [7],0.034
same,F,[1]; [7],19.0%
same,Ke,[1]; [7],0.325 h⁻¹
same,Tlast,[1]; [7],8 h
same,Cmax/dose,[1]; [7],0.011
same,AUC/Dose,[1]; [8],0.039
same,F,[1]; [8],22.3%
same,Ke,[1]; [8],0.433 h⁻¹
same,Tlast,[1]; [8],8 h
same,Cmax/dose,[1]; [8],0.015
same,AUC/Dose,[1]; [9],0.048
same,F,[1]; [9],27.4%
same,Ke,[1]; [9],0.489 h⁻¹
same,Tlast,[1]; [9],8 h
same,Cmax/dose,[1]; [9],0.024
same,bioavailability,"[1]; mouse, plasma, BALB/c mice, single oral doses of 2, 10, 50 and 100 mg/kg, read-out: oral bioavailability, range over oral doses",19 to 27%
same,MIC,[2],0.03 µg/mL
